# From PubChem BioAssay (NCI)
#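 Abbreviation: GI50, concentration required for 50% inhibition of growth. Definition used: TGI = concentration required for complete inhibition of growth.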
# How the values were obtained:
# Assay in all cases: NCI tumour cell line growth inhibition, 384-well format
# HCT-15 colon = tested on: HCT-15 colon
# NCI-H522 lung = tested on: NCI-H522 lung
# HCC-2998 colon = tested on: HCC-2998 colon
# OVCAR-4 ovarian = tested on: OVCAR-4 ovarian
# T-47D breast = tested on: T-47D breast
# UACC-62 melanoma = tested on: UACC-62 melanoma
# SK-MEL-5 melanoma = tested on: SK-MEL-5 melanoma
# RXF 393 renal = tested on: RXF 393 renal
# UO-31 renal = tested on: UO-31 renal
# MOLT-4 leukemia = tested on: MOLT-4 leukemia
# CCRF-CEM leukemia = tested on: CCRF-CEM leukemia
# SF-295 CNS = tested on: SF-295 CNS
# K-562 leukemia = tested on: K-562 leukemia
# HOP-62 NSCLC = tested on: HOP-62 NSCLC
# MDA-MB-231 breast = tested on: MDA-MB-231 breast
# RPMI-8226 leukemia = tested on: RPMI-8226 leukemia
# SN12C renal = tested on: SN12C renal
# PC-3 prostate = tested on: PC-3 prostate
# MDA-MB-468 breast = tested on: MDA-MB-468 breast
# M14 melanoma = tested on: M14 melanoma
# SNB-19 CNS = tested on: SNB-19 CNS
# HS 578T breast = tested on: HS 578T breast
# NCI-H322M lung = tested on: NCI-H322M lung
# SW-620 colon = tested on: SW-620 colon
# OVCAR-5 ovarian = tested on: OVCAR-5 ovarian
# SK-OV-3 ovarian = tested on: SK-OV-3 ovarian
# NCI/ADR-RES ovarian = tested on: NCI/ADR-RES ovarian
# DU-145 prostate = tested on: DU-145 prostate
# IGROV1 ovarian = tested on: IGROV1 ovarian
# MALME-3M melanoma = tested on: MALME-3M melanoma
# TK-10 renal = tested on: TK-10 renal
# SNB-75 CNS = tested on: SNB-75 CNS
# U251 glioblastoma = tested on: U251 glioblastoma
# COLO 205 colon = tested on: COLO 205 colon
# EKVX NSCLC = tested on: EKVX NSCLC
# OVCAR-3 ovarian = tested on: OVCAR-3 ovarian
# HL-60(TB) leukemia = tested on: HL-60(TB) leukemia
# SK-MEL-2 melanoma = tested on: SK-MEL-2 melanoma
# SF-539 CNS = tested on: SF-539 CNS
# MCF7 breast = tested on: MCF7 breast
# NCI-H23 lung = tested on: NCI-H23 lung
# SF-268 CNS = tested on: SF-268 CNS
# SK-MEL-28 melanoma = tested on: SK-MEL-28 melanoma
# OVCAR-8 ovarian = tested on: OVCAR-8 ovarian
# UACC-257 melanoma = tested on: UACC-257 melanoma
# CAKI-1 renal = tested on: CAKI-1 renal
# A549 NSCLC = tested on: A549 NSCLC
# SR leukemia = tested on: SR leukemia
# HT29 colon = tested on: HT29 colon
# MDA-MB-435 melanoma = tested on: MDA-MB-435 melanoma
# BT-549 breast = tested on: BT-549 breast
# LOX IMVI melanoma = tested on: LOX IMVI melanoma
# 786-0 renal = tested on: 786-0 renal
# NCI-H460 NSCLC = tested on: NCI-H460 NSCLC
# HCT-116 colon = tested on: HCT-116 colon
# NCI-H226 lung = tested on: NCI-H226 lung
# KM12 colon = tested on: KM12 colon
smiles,measurement,setting,value
C=CCn1c(=O)c2cnc(Nc3ccc(N4CCN(C)CC4)cc3)nc2n1-c1cccc(C(C)(C)O)n1,GI50,HCT-15 colon,326 nM
same,TGI,HCT-15 colon,1210 nM
same,GI50,NCI-H522 lung,135 nM
same,TGI,NCI-H522 lung,286 nM
same,GI50,HCC-2998 colon,203 nM
same,TGI,HCC-2998 colon,555 nM
same,GI50,OVCAR-4 ovarian,157 nM
same,TGI,OVCAR-4 ovarian,407 nM
same,GI50,T-47D breast,5.88 µM
same,TGI,T-47D breast,28.9 µM
same,GI50,UACC-62 melanoma,354 nM
same,TGI,UACC-62 melanoma,12.8 µM
same,GI50,SK-MEL-5 melanoma,187 nM
same,TGI,SK-MEL-5 melanoma,460 nM
same,GI50,RXF 393 renal,48.7 nM
same,TGI,RXF 393 renal,196 nM
same,GI50,UO-31 renal,274 nM
same,TGI,UO-31 renal,1250 nM
same,GI50,MOLT-4 leukemia,29.9 nM
same,TGI,MOLT-4 leukemia,103 nM
same,GI50,CCRF-CEM leukemia,69.9 nM
same,TGI,CCRF-CEM leukemia,197 nM
same,GI50,SF-295 CNS,357 nM
same,TGI,SF-295 CNS,2260 nM
same,GI50,K-562 leukemia,175 nM
same,TGI,K-562 leukemia,347 nM
same,GI50,HOP-62 NSCLC,406 nM
same,TGI,HOP-62 NSCLC,2130 nM
same,GI50,MDA-MB-231 breast,372 nM
same,TGI,MDA-MB-231 breast,7.33 µM
same,GI50,RPMI-8226 leukemia,260 nM
same,TGI,RPMI-8226 leukemia,1120 nM
same,GI50,SN12C renal,311 nM
same,TGI,SN12C renal,2270 nM
same,GI50,PC-3 prostate,724 nM
same,TGI,PC-3 prostate,21 µM
same,GI50,MDA-MB-468 breast,220 nM
same,TGI,MDA-MB-468 breast,492 nM
same,GI50,M14 melanoma,51.4 nM
same,TGI,M14 melanoma,246 nM
same,GI50,SNB-19 CNS,502 nM
same,TGI,SNB-19 CNS,15.4 µM
same,GI50,HS 578T breast,154 nM
same,TGI,HS 578T breast,529 nM
same,GI50,NCI-H322M lung,233 nM
same,TGI,NCI-H322M lung,935 nM
same,GI50,SW-620 colon,352 nM
same,TGI,SW-620 colon,1930 nM
same,GI50,OVCAR-5 ovarian,596 nM
same,TGI,OVCAR-5 ovarian,6.1 µM
same,GI50,SK-OV-3 ovarian,76.6 nM
same,TGI,SK-OV-3 ovarian,1460 nM
same,GI50,NCI/ADR-RES ovarian,1810 nM
same,TGI,NCI/ADR-RES ovarian,4.95 µM
same,GI50,DU-145 prostate,262 nM
same,TGI,DU-145 prostate,1810 nM
same,GI50,IGROV1 ovarian,173 nM
same,TGI,IGROV1 ovarian,1090 nM
same,GI50,MALME-3M melanoma,52.9 nM
same,TGI,MALME-3M melanoma,342 nM
same,GI50,TK-10 renal,171 nM
same,TGI,TK-10 renal,700 nM
same,GI50,SNB-75 CNS,1210 nM
same,TGI,SNB-75 CNS,4.35 µM
same,GI50,U251 glioblastoma,419 nM
same,TGI,U251 glioblastoma,6.77 µM
same,GI50,COLO 205 colon,294 nM
same,TGI,COLO 205 colon,829 nM
same,GI50,EKVX NSCLC,560 nM
same,TGI,EKVX NSCLC,4.8 µM
same,GI50,OVCAR-3 ovarian,130 nM
same,TGI,OVCAR-3 ovarian,328 nM
same,GI50,HL-60(TB) leukemia,148 nM
same,TGI,HL-60(TB) leukemia,284 nM
same,GI50,SK-MEL-2 melanoma,160 nM
same,TGI,SK-MEL-2 melanoma,393 nM
same,GI50,SF-539 CNS,51 nM
same,TGI,SF-539 CNS,178 nM
same,GI50,MCF7 breast,216 nM
same,TGI,MCF7 breast,11.5 µM
same,GI50,NCI-H23 lung,94.5 nM
same,TGI,NCI-H23 lung,254 nM
same,GI50,SF-268 CNS,559 nM
same,TGI,SF-268 CNS,10.7 µM
same,GI50,SK-MEL-28 melanoma,3.44 µM
same,TGI,SK-MEL-28 melanoma,17.1 µM
same,GI50,OVCAR-8 ovarian,219 nM
same,TGI,OVCAR-8 ovarian,566 nM
same,GI50,UACC-257 melanoma,10 µM
same,TGI,UACC-257 melanoma,21.9 µM
same,GI50,CAKI-1 renal,72.3 nM
same,TGI,CAKI-1 renal,11.2 µM
same,GI50,A549 NSCLC,1020 nM
same,TGI,A549 NSCLC,12.8 µM
same,GI50,SR leukemia,58.4 nM
same,TGI,SR leukemia,184 nM
same,GI50,HT29 colon,319 nM
same,TGI,HT29 colon,15.2 µM
same,GI50,MDA-MB-435 melanoma,201 nM
same,TGI,MDA-MB-435 melanoma,413 nM
same,GI50,BT-549 breast,115 nM
same,TGI,BT-549 breast,299 nM
same,GI50,LOX IMVI melanoma,626 nM
same,TGI,LOX IMVI melanoma,2710 nM
same,GI50,786-0 renal,183 nM
same,TGI,786-0 renal,414 nM
same,GI50,NCI-H460 NSCLC,574 nM
same,TGI,NCI-H460 NSCLC,3.42 µM
same,GI50,HCT-116 colon,308 nM
same,TGI,HCT-116 colon,2240 nM
same,GI50,NCI-H226 lung,1410 nM
same,TGI,NCI-H226 lung,9.22 µM
same,GI50,KM12 colon,218 nM
same,TGI,KM12 colon,649 nM
